Test results published in patent publication US4675405A, “Quinoline compounds as antiallergic and antithrombotic agents” (American Home Products Corporation, priority 1986, dated 1987).

Legend:
[1] = test system: 5-HETE synthesis (lipoxygenase); experiment: inhibition of 5-HETE synthesis by rat glycogen-elicited polymorphonuclear leukocytes; format: cell-based; conditions: for IC50: Leukocyte, rat PMN, A23187 + [14C]arachidonic acid, read-out: 50% Inhibitory Concentration (IC50) 5-HETE
Description: (§1) This is especially true with respect to 5,12-diHETE, which is also denoted as LTB4 [see Ford-Hitchinson, J. Roy. Soc. Med., 74, 831 (1981)]. The assay of this Example measures the ability of the compounds of the inventin to inhibit the synthesis of 5HETE and LTB4 by rat glycogen-elicited polymorphonuclear leukocytes.
(§2) Peritoneal PMN are obtained from female Wistar rats (150-250 g) that received an i.p. injection of 6% glycogen (10 ml). After 24 hours, rats are killed by CO2 asphyxiation and peritoneal cells are harvested by peritoneal lavage using Ca^++ and Mg^++ free Hanks' balanced salt solution (HBSS). The peritoneal exudate is centrifuged at 400 g for 10 minutes. After centrifugation, the lavaged fluid is removed and the cell pellet is resuspended in HBSS containing Ca^++ and Mg^++ and 10 mM L-cysteine at a concentration of 2×10^7 cells/ml. To 1 ml portions of cell suspension, test drugs or vehicle are added and incubated at 37° C. for 10 minutes. Following this preincubation, the calcium ionophore (10 μM), A23187, is added together with 0.5 μCi [^14 C] arachidonic acid and further incubated for 10 minutes. The reaction is stopped by the addition of ice cold water (3 ml) and acidifying to pH 3.5. Lipoxygenase products are then extracted twice into diethyl ether. The pooled ether extracts are evaporated to dryness under nitrogen and the residue is redissolved in a small volume of methanol and spotted on aluminum backed pre-coated thin layer chromatographic plates. The samples are them co-chromatographed with authentic reference 5-HETE, 12-HETE and 5,12-diHETE in the solvent system--hexane:ether:acetic acid (50:50:3). After chromatography, the areas associated with 5-HETE and 5,12-diHETE standards are identified by autoradiography, cut out and quantitated by liquid scintillation.
Results are expressed as % inhibition of [^14 C]5-HETE and [^14 C]LTB4 (5,12-HETE)synthesis. [formula]
Testing compounds of the invention in this assay and using the antioxident 3-amino-1-[m-(trifluoromethyl)phenyl]-2-pyrazoline (BW755C) as a standard, the following results are obtained.

[2] = test system: LTB4 synthesis (lipoxygenase); experiment: inhibition of LTB4 (5,12-diHETE) synthesis by rat glycogen-elicited polymorphonuclear leukocytes; format: cell-based; conditions: Leukocyte; rat PMN, A23187 + [14C]arachidonic acid; read-out: 50% Inhibitory Concentration (IC50) LTB4
Description: as §1
as §2, with “The reaction is stopped by the addition of ice cold water (3 ml) and acidifying to pH 3.5. Lipoxygenase products are then extracted twice into diethyl ether. The pooled ether extracts are evaporated to dryness under nitrogen and the residue is redissolved in a small volume of methanol and spotted on aluminum backed pre-coated thin layer chromatographic plates. The samples are them co-chromatographed with authentic reference 5-HETE, 12-HETE and 5,12-diHETE in the solvent system--hexane:ether:acetic acid (50:50:3).” left out
(§3) Results are expressed as % inhibition of [^14 C]5-HETE and [^14 C]LTB4 (5,12-HETE)synthesis. […]

[3] = test system: LTD4 induced bronchospasm; experiment: in vivo inhibition of LTD4 induced bronchospasm in guinea pigs; parameters: species or system guinea pig; conditions: for % Inhibition (Statistical Average), Overflow Volume at 1 min. / % Inhibition (Statistical Average), Overflow Volume at 3 min. / % Inhibition (Statistical Average), Overflow Volume at 5 min.: 10 minutes before LTD4
Description: The assay of this Example measures the in vivo ability of the compounds of the invention to inhibit the bronchospasm induced in guinea pigs by the exogenously administered leukotrienes C4 and/or D4. This assay is essentially a measure of the SRS-A antagonist properties of the compounds tested.
Male Hartley strain guinea pigs (350-600 g) are anesthetized with pentobarbital sodium (50 mg/kg, i.p.). The jugular vein is cannulated for injection of drugs and the carotid artery for monitoring blood pressure. The trachea is cannulated for artificial ventilation by a miniature Starling pump and for indirect measurement of respiratory volume changes as described infra. Additional pentobarbital sodium (15 mg/kg, i.v.) is administered to arrest spontaneous respiration. Submaximal bronchoconstrictor responses are established in control animals by varying the dose-levels of leukotriene. Intravenous dose-levels for LTC4 range from 1 to 2 μg/kg and for LTD4 the range is from 0.3 to 1 μg/kg. The aerosol bronchoprovocation dose for LTC4 is generated from 1.6 μM solution and for LTD4 from a 2.0 μM solution.
Test drugs are administered either intravenously, intragastrically, by aerosol or orally at 1 or 10 minutes before induction of bronchospasm by administration of either LTC4 or LTD4 at the predetermined dose-levels. Aerosols of soluble drugs or leukotrienes are produced in-line for 10 seconds only by actuation of an ultrasonic nebulizer (Monaghan). Aerosolized drug dosage is expressed in terms of solution concentration and by a fixed aerosol exposure time (approximately 10 seconds). Control animals receive saline in place of drug.
(§4) Respiratory volume changes are determined by a calibrated piston whose travel is recorded, via a linear transducer, on a Beckman Dynograph recorder. Maximal bronchoconstrictor volume is determined by clamping off the trachea at the end of the experiment. Overflow volumes at 1, 3 and 5 minutes are obtained from the recorded charts.
The overflow volume at 1, 3 and 5 minutes is expressed as a percentage of maximal bronchoconstriction. Combined group values are used from each of these time intervals to determine the inhibitory effect of drugs. [formula] Students t-test for unpaired data is used to determine statistical significance. Dose reponse curves are generated and ED50 doses are interpolated from the regression lines.
Results for compounds of the invention in this assay, using LTD4 for induction of bronchospasm, are given below:
Two other compounds of this invention are tested in this assay and the results are expressed based on the following calculations which employ the values obtained for the overflow volumes at 1, 3 and 5 minutes:
Area under the volume overflow curve (AUC) is estimated, using the overflow values at 1, 3 and 5 minutes, and expressed as a percentage of the maximal overflow AUC (equation 1): [formula] Drug effects are reported as percent inhibition of % max AUC values obtained from appropriate control animals (equation 2): [formula]
Student's t-test for unpaired data is used to determine statistical significance (p<0.05). IC50 values can also be determined by inverse prediction from linear regression lines through points between 10 and 90% inhibition.

[4] = test system: TxB2 synthesis (cyclooxygenase); experiment: inhibition of synthesis of the cyclooxygenase oxidation product TxB2 by rat PMN; format: cell-based
Description: as §2
The procedure of Example 5 is also employed for the determination of the ability of the compounds of the invention to inhibit the synthesis of the arachidonic acid cyclooxygenase oxidation product TxB2.
In this assay, the procedure of Example 5 is carried out as described. However, in order to determine cyclooxygenase activity, the samples are cochromatographed with authentic reference TxB2 in the solvent system ethyl acetate:formic acid (80:1) and the upper phase of ethyl acetate:isoctane:acetic acid:water (110:50:20:100). After chromatography, the areas associated with TxB2 standard are identified by autoradiography, cut out and quantitated by liquid scintillation techniques.
The results are calculated as in Example 5.

[5] = test system: ovalbumin induced bronchospasm; experiment: in vivo inhibition of ovalbumin induced bronchospasm mediated by endogenous mediators in sensitized guinea pigs; parameters: species or system guinea pig; conditions: 10 minutes before i.v. ovalbumin challenge
Description: The assay of this Example measures the in vivo ability of the compounds of the invention to inhibit the bronchospasm induced in guinea pigs by endogenous mediators of the bronchoconstriction.
Male Hartley strain guinea pigs weighing 250-350 g are sensitized to chicken ovalbumin (OA) (10 mg i.p.) on days 1 and 3 and used starting on day 26. The animals are anesthetized with pentobarbital sodium (50 mg/kg, i.p.), bilateral vagotomy is performed, and the jugular vein is cannulated for injection of drugs and the carotid artery for monitoring blood pressure. The trachea is cannulated for artificial ventilation by miniature Starling pump and for indirect measurement of respiratory volume changes as described, infra. Succinylcholine (2 mg/kg, i.v.) is administered to arrest spontaneous respiration. […]
as §4, with “volumes at minutes 1, 3” for “volumes at 1, 3”, “and 5 are obtained” for “and 5 minutes are obtained”
Area under the volume overflow curve (AUC) is estimated, using the overflow values at 1, 3 and 5 minutes, and expressed as a percentage of the maximal overflow AUC (equation 1): [formula] […]

[6] = test system: 5-HETE and LTB4 synthesis (lipoxygenase); experiment: inhibition of synthesis of lipoxygenase products 5-HETE and LTB4 by rat PMN (product not separately stated); format: cell-based
Description: as §1
as §2, with “The reaction is stopped by the addition of ice cold water (3 ml) and acidifying to pH 3.5. Lipoxygenase products are then extracted twice into diethyl ether. The pooled ether extracts are evaporated to dryness under nitrogen and the residue is redissolved in a small volume of methanol and spotted on aluminum backed pre-coated thin layer chromatographic plates. The samples are them co-chromatographed with authentic reference 5-HETE, 12-HETE and 5,12-diHETE in the solvent system--hexane:ether:acetic acid (50:50:3).” left out
as §3

NC1=NN(c2cccc(C(F)(F)F)c2)CC1 [BW755C, 3-amino-1-[m-(trifluoromethyl)phenyl]-2-pyrazoline, reference compound]
IC50 [1]: 43 µM
IC50 [2]: 30 µM

CCS(=O)(=O)Nc1cccc(OCc2ccc3ccccc3n2)c1 [Example 2A, N-[3-[(2-Quinolinyl)methoxy]phenyl]ethane sulfonamide]
% Inhibition at 100 μm (first value, 5-HETE by column order) ([1]; 100 μm): 93%
% Inhibition (Statistical Average), Overflow Volume at 1 min. ([3]; 50 mg/kg intraduodenal): 88%
% Inhibition (Statistical Average), Overflow Volume at 3 min. ([3]; 50 mg/kg intraduodenal): 86%
% Inhibition (Statistical Average), Overflow Volume at 5 min. ([3]; 50 mg/kg intraduodenal): 81%
% Inhibition at 100 μm (TxB2 synthesis) [4]: 56%

CCS(=O)(=O)Nc1cccc(OCc2ccc3ccccc3c2)c1 [Example 2C, N-[3-[(2-Naphthalenyl)methoxy]phenyl]ethane sulfonamide]
% Inhibition (Statistical Average), Overflow Volume at 1 min. ([3]; 50 mg/kg intraduodenal): 61%
% Inhibition (Statistical Average), Overflow Volume at 3 min. ([3]; 50 mg/kg intraduodenal): 41%
% Inhibition (Statistical Average), Overflow Volume at 5 min. ([3]; 50 mg/kg intraduodenal): 53%

O=S(=O)(Nc1cccc(OCc2ccc3ccccc3n2)c1)C(F)(F)F [Example 3, N-[3-[(2-Quinolinyl)methoxy]phenyl]trifluoromethane sulfonamide]
% Inhibition ([3]; 25 mg/kg administered intragastrically): 98%
ED50 ([3]; Cavia porcellus, po, administered intragastrically, LTD4 induced bronchospasm, read-out: IC50 (the source's name)): 0.1 mg/kg
% Inhibition ([5]; 25 mg/kg intragastric): 97%
ED50 ([5]; Cavia porcellus, 10 min, intragastric, read-out: IC50 (the source's name)): 0.6 mg/kg

CCCS(=O)(=O)Nc1cccc(OCc2cc3ccccc3s2)c1 [Example 2E, N-[3-[(2-Benzo[b]thienyl]methoxy]phenyl]-1-propane sulfonamide]
>50% Inhibitory at 50 μm [6]: + (inhibition of >50%)
50% Inhibition at 50 μm (TxB2 synthesis) [4]: + (inhibition of >50%)

CCCCS(=O)(=O)Nc1cccc(OCc2ccc3ccccc3n2)c1 [Example 2B, N-[3-[(2-Quinolinyl)methoxy]phenyl]-1-butane sulfonamide]
IC50 [1]: 1.6 µM
% Inhibition (Statistical Average), Overflow Volume at 1 min. ([3]; 50 mg/kg intraduodenal): 08%
% Inhibition (Statistical Average), Overflow Volume at 3 min. ([3]; 50 mg/kg intraduodenal): 41%
% Inhibition (Statistical Average), Overflow Volume at 5 min. ([3]; 50 mg/kg intraduodenal): 41%
IC50 [2]: 2.1 µM
% Inhibition at 100 μm (TxB2 synthesis) [4]: 73%

CCS(=O)(=O)Nc1cccc(OCc2cc3ccccc3s2)c1 [Example 2D, N-[3-[(2-Benzo[b]thienyl)methoxy]phenyl]ethane sulfonamide]
>50% Inhibitory at 50 μm [6]: + (inhibition of >50%)
% Inhibition of Max AUC ([3]; 50 mg/kg intraduodenal, 10 minutes before induction of bronchospasm): 13%
50% Inhibition at 50 μm (TxB2 synthesis) [4]: + (inhibition of >50%)
